In assay [1] the test system is C57BL/6J mice. In words: Analysis of blood lipids. The format is in vivo. The note with it: HD (high-fat diet), HCA 300 mg/kg BW/day oral, 8 weeks. The source says: (§1) Four-week-old male C57BL/6J mice were purchased from Central Lab-Animal Inc. (Seoul, Korea), adapted for a week to a normal diet in which fats accounted for 10% of the total calories, and then used for experiments. To induce obesity, a high fat diet in which fats accounted for 60% of the total calories was supplied to all groups other than a normal diet (ND) group and an ND sample group, and a normal diet in which fats accounted for 10% of the total calories was freely supplied to the ND group and the ND sample group for a total of 8 weeks. The experimental groups were divided into a total of 6 groups: a ND group, a high fat diet (HD) group, a positive control (HCA), a sample group (ND+JMW) in which a hot-water extract complex of bamboo leaves plus quince was administered to the ND group, and sample-efficacy groups (HD+JMW200 and HD+JMW400) in which a two-fold concentration of the hot-water extract complex of bamboo leaves plus quince was administered to the high fat diet group. In this case, ten mice were assigned to each group using a randomized block design, and used for experiments. To check an anti-obesity effect of the sample extract for 8 weeks (week 1 to 8) after a one-week adaptation, the test material was dissolved in distilled water, and orally administered to the positive control, the ND sample group, and the HD sample-efficacy groups once a day at a concentration of 300 mg/kg BW/day, 400 mg/kg BW/day, 200 mg/kg BW/day, and 400 mg/kg BW/day, respectively. Also, distilled water was administered to the ND group and the HD group. An amount of blood lipids (triglycerides and cholesterol) was measured in the laboratory animals treated with the hot-water extract complex of bamboo leaves plus quince.

Assay [2] relates to 3T3-L1 adipocytes. In words: Analysis of triglyceride content. The format is cell-based. The note with it: 100 μg/mL; differentiated adipocytes 126.2±1.25. The procedure:
(§2) An adipocyte 3T3-L1 cell line was purchased from the American Type Culture Collection (Rockville, Md., USA), and cultured at 37° C. in a DMEM (Invitrogen, USA) medium supplemented with 10% fetal bovine serum (FBS; Invitrogen, USA) in a 5% CO2 incubator. To avoid contamination, 100 units/mL of penicillin and 100 μg/mL of streptomycin (Gibco/BRL, USA) as antibiotics were added thereto, and the cells were treated with trypsin-EDTA (Gibco/BRL, USA), and sub-cultured. The medium was replaced with a fresh one every two or three days. For treatment with the extract complex, the cultured 3T3-L1 cell line was transferred to a 24-well plate (Corning, USA) at a density of 1×10^5 cells/well. After the medium was replaced with a FBS-free medium the next evening, the 3T3-L1 cell line was treated for 16 hours. 3T3-L1 adipocytes were treated with each of the 30% ethanol extract complex of bamboo leaves plus quince and the hot-water extract complex of bamboo leaves plus quince at concentrations of 50 and 100 μg/mL to measure a concentration of triglycerides.

The subject of assay [3] is 3T3-L1 adipocytes. Kind of assay: Analysis of leptin production (ELISA kit). It counts as cell-based. The following applies: 100 μg/mL; differentiated adipocytes 0.50±0.01. On the procedure:
as §2, with “hours. Leptin is a hormone that is produced by an obesity gene in adipocytes. Thus, a blood leptin concentration has been widely used for obesity research as an indicator of body fat mass because a secretion rate of leptin increases with an increase in fat accumulated in the adipocytes. […]” for “hours.”, “μg/mL, and” for “μg/mL to measure”, “leptin was then measured using an ELISA kit.” for “triglycerides.”

Assay [4] concerns 3T3-L1 adipocytes. In words: Analysis of glycerol release. The format is cell-based. The following applies: 100 μg/mL; differentiated adipocytes 18.10±2.28. The procedure:
as §2, with “measure an amount of glycerol production. An amount of glycerol production in undifferentiated pre-adipocytes was 2.46±1.34 μg/mL, an amount of glycerol production in differentiated adipocytes was 18.10±2.28 μg/mL, and an amount of glycerol production in the positive control was 32.09±1.23 μg/mL when HCA was present at” for “measure”, “100 μg/m L.” for “triglycerides.”

Assay [5] has as its system C57BL/6J mice. In words: Weight of adipose tissues (EAT, BAT). The format is in vivo. The following applies: HD (high-fat diet), HCA 300 mg/kg BW/day oral, 8 weeks.
Source text: as §1, with “[…] The weights” for “To check an anti-obesity effect”, “adipose tissues” for “sample extract for 8 weeks (week 1 to 8) after a one-week adaptation, the test material was dissolved in distilled water, and orally administered to the positive control, the ND sample group, and the HD sample-efficacy groups once a day at a concentration of 300 mg/kg BW/day, 400 mg/kg BW/day, 200 mg/kg BW/day, and 400 mg/kg BW/day, respectively. Also, distilled water was administered to the ND group and the HD group. An amount of blood lipids (triglycerides and cholesterol) was measured”, “quince were measured.” for “quince.”

The test system of assay [6] is C57BL/6J mice. Kind of assay: Body weight gain, food intake and food efficiency ratio, 8-week oral administration. The following applies: HD (high-fat diet), HCA 300 mg/kg BW/day oral, 8 weeks. It counts as in vivo.
Source text: as §1, with “After” for “An amount of blood lipids (triglycerides and cholesterol) was measured in the”, “were adapted for a week,” for “treated with”, “quince was orally administered to the C57BL/6J mice for 8 weeks to observe a change in body weight.” for “quince.”

“And” between values parts separate entries of the source, which are not always exact repeats. Equal values may be shown once. Marks after values point to notes of the source that are not given here.

On to `O=C(O)CC(O)(C(=O)O)C(O)C(=O)O` (stereo not shown) [HCA, hydroxycitric acid], for which, in the assay with C57BL/6J mice [1], the HDL-cholesterol was 75.66 mg/dL and 75.66 ± 8.11^b mg/dL; the LDL-cholesterol is recorded as 131.06 ± 6.82^b mg/dL; the “Total cholesterol (blood)” value was 241.53 mg/dL and 241.53 ± 8.87^b mg/dL; the “Triglyceride (blood)” value is 174.08 mg/dL and 174.08 ± 3.49^b mg/dL. The molecule further returned an LDL-cholesterol with C57BL/6J mice [1] (listed as positive control) of 131.06 mg/dL. In the assay on 3T3-L1 adipocytes [2], this molecule had a triglyceride content of 98.01±1.24 μg/mg protein. The “amount of leptin production” value with 3T3-L1 adipocytes [3] stood at 0.39 ± 0.01 ng/mL. For the same molecule, the “amount of glycerol production” value with 3T3-L1 adipocytes [4] came out at 32.09 ± 1.23 µg/mL. Moreover, in the assay with C57BL/6J mice [5], the “BAT (brown adipose tissue) weight” value is listed as 0.09 ± 0.02^b g; the “EAT (epididymal adipose tissue) weight” value is 1.70 g and 1.70 ± 0.14^b g. Also, in the assay with C57BL/6J mice [6], the Final body weight is 33.50 ± 3.58^b g; the Food intake is 3.79 g/day and 3.79 ± 0.05^c g/day; the Weight gain was 12.83 g/8 weeks and 12.83 ± 0.94^b g/8 weeks.

Source of the values: US20180193401A1, “ANTI-OBESITY COMPOSITION COMPRISING NATURAL COMPLEX” (MEGABIOWOOD CO., LTD., priority 2017, published 2018).
